The results in this text go back to US20260265246A1 (ICAHN SCHOOL OF MEDICINE AT MOUNT SINAI, priority 2021, published 2026).

Assay [1] deals with T1, 5HT2A receptor (Homo sapiens, UniProt P28223). Nature of the assay: cell-based. Particulars: for Emax: HEK-293T. Further details: expressed in transfected cells; host or cells: HEK293T cells, transient co-transfection.
Assay [2] has as its target T1, 5HT2A receptor. Nature of the assay: biochemical. Particulars: for Ki: 5HT2A Ki (nM). It counts as binding. Further details: expressed in transfected cells; crude membranes.
Assay [3] concerns the target T1, 5HT2A receptor. The assay can be described thus: cell-based. Further details: expressed in transfected cells; host or cells: HEK293T cells, transient co-transfection. Particulars: for Emax: HEK-293T; for EC50: 5HT2A β-Arr EC50 (nM).
[4] abbreviates: BRET2 Gαq dissociation, HEK293T cells, read-out: 5HT2A Gq EC50.
The mark [5] stands for this setting: BRET2 Gαq dissociation, HEK293T cells, normalized to 5-HT, read-out: 5HT2A Gq Emax (%).
Setting [6] is: secondary radioligand binding, Ki from IC50 by Cheng-Prusoff.
Setting [7] is: BRET1 beta-arrestin2 recruitment, HEK293T cells, normalized to 5-HT, read-out: 5HT2A β-Arr Emax (%).
Setting [8] is: BRET2 Gαq dissociation, HEK293T, read-out: 5HTA Gq EC50.
[9] abbreviates: BRET2 Gαq dissociation, HEK293T, normalized to 5-HT, read-out: 5HTA Gq Emax (%).
Where [10] appears, read: secondary binding assay, Cheng-Prusoff.
The mark [11] stands for this setting: BRET1 beta-arrestin2 recruitment, HEK293T.
[12] abbreviates: BRET1 beta-arrestin2 recruitment, HEK293T, normalized to 5-HT, read-out: 5HT2A β-Arr Emax (%).
Setting [13] is: 5HTA Gq EC50 (nM), BRET2 Gαq dissociation, HEK293T.
Setting [14] is: read-out: 5HTA Gq Emax (%), BRET2 Gαq dissociation, HEK293T, normalized to 5-HT.
The mark [15] stands for this setting: read-out: 5HT2A β-Arr Emax (%), BRET1 beta-arrestin2 recruitment, HEK293T, normalized to 5-HT.
Setting [16] is: 5HT2A Gq EC50 (nM), BRET2 Gαq dissociation, HEK293T cells.
[17] abbreviates: BRET1 beta-arrestin2 recruitment, HEK293T cells.

pEC50, pKi: −log10 of the molar value. Like-named read-outs stand apart in the source and are kept apart here.

T1 sequence (P28223 whole entry): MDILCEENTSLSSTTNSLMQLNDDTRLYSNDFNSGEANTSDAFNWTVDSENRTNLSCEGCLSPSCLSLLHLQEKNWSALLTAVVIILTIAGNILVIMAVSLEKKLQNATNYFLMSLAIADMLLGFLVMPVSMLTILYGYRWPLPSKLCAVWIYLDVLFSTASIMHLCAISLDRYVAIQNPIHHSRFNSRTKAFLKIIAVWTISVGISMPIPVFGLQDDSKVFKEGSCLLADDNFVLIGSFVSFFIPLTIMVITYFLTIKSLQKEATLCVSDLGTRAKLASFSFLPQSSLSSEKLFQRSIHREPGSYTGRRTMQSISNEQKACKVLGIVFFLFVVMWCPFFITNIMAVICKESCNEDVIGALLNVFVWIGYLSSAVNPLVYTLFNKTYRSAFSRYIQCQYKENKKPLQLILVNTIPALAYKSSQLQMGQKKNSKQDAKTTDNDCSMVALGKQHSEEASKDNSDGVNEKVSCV

As usually defined, the pEC50 is the EC50 on a negative log10 scale, so that one unit is a factor of ten. One may read the Emax as the size of the effect at its maximum, as opposed to the concentration needed. One may read the Ki as the equilibrium dissociation constant of an inhibitor or competing ligand from its target. A lower Ki goes with a stronger hold on the target. In the case of `Fc1cccc2c(C3=CCCNC3)n[nH]c12` [Example 90, 7-fluoro-3-(1,2,5,6-tetrahydropyridin-3-yl)-1H-indazole], the pEC50 in assay [1] (setting [4]) is 8.04; in assay [3] (BRET1 beta-arrestin2 recruitment, HEK293T cells, read-out: 5HT2A β-Arr EC50), 7.07. In addition, the Emax in assay [1] (setting [5]) worked out at 95.6%; in assay [3] (setting [7]), 70%. The compound further came in with a Ki in assay [2] (setting [6]) of 1390 nM.
By EC50 is commonly meant the concentration at which the effect is half-maximal. Consider `CC(C)N1CC=C(c2n[nH]c3c(Cl)cccc23)C1` [Example 219, 7-chloro-3-(1-isopropyl-2,5-dihydro-1H-pyrrol-3-yl)-1H-indazole], for which, in assay [1] (setting [8]), the pEC50 was 7.59. Besides, the Emax in assay [1] (setting [9]) turned out to be 55.5%; in assay [3] (setting [12]), 71.9%. Moreover, affinity in assay [2] (setting [10]) was put at a Ki of 313 nM. Besides, in assay [3] (setting [11]), the concentration for a half-maximal effect (EC50) turned out to be 537 nM.
On the same counts, the results for `Clc1cccc2c(C34CNCC3C4)c[nH]c12` (stereo not shown) [Example 270, 3-(3-azabicyclo[3.1.0]hexan-1-yl)-7-chloro-1H-indole] are 7.53, 93.8%, 21.2%, 134 nM and 822 nM.
Take `Clc1cccc2c(C3=CCCN(C4CC4)C3)n[nH]c12` [Example 166, 7-chloro-3-(1-cyclopropyl-1,2,5,6-tetrahydropyridin-3-yl)-1H-indazole]: the results for the EC50 in assay [1] (setting [13]) and in assay [3] (setting [11]) were 47.1 nM and 120 nM, respectively. Further, the values for the Emax in assay [1] (setting [14]) and in assay [3] (setting [15]) were 64% and 24.9%, respectively. In addition, the Ki in assay [2] (setting [10]) amounted to 307 nM.
As for `CN1CCC=C(c2n[nH]c3c(C#N)cccc23)C1` [Example 108, 3-(1-methyl-1,2,5,6-tetrahydropyridin-3-yl)-1H-indazole-7-carbonitrile], the EC50 in assay [1] (setting [16]) was 108 nM; in assay [3] (setting [17]), 494 nM. The Emax is 102% in assay [1] (setting [5]) and 72.5% in assay [3] (setting [7]). The Ki in assay [2] (setting [6]) came out at 1380 nM.
`CN1CCC=C(c2c[nH]c3ncc(-c4ccccc4)cc23)C1` [Example 8, 3-(1-methyl-1,2,5,6-tetrahydropyridin-3-yl)-5-phenyl-1H-pyrrolo[2,3-b]pyridine]: the results for the EC50 in assay [1] (setting [16]) and in assay [3] (setting [17]) were 67 nM and 811 nM, respectively. In addition, the Emax was 95.5% in assay [1] (setting [5]) and 58.3% in assay [3] (setting [7]). In addition, in assay [2] (setting [6]), the Ki is 156 nM.
On to `CCc1[nH]c2ccccc2c1C1=CCCNC1` [Example 62, 2-ethyl-3-(1,2,5,6-tetrahydropyridin-3-yl)-1H-indole], for which, in assay [1] (setting [4]), the pEC50 is 7.12. Further, the values for the Emax in assay [1] (setting [5]) and in assay [3] (setting [7]) were 49.1% and 45.1%, respectively. For the same compound, in assay [2] (setting [6]), the Ki turned out to be 810 nM. The compound also registered an EC50 in assay [3] (setting [17]) of 633 nM.
For the compound `Clc1cnc2[nH]cc(C3=CCCNC3)c2c1` [Example 3, 5-chloro-3-(1,2,5,6-tetrahydropyridin-3-yl)-1H-pyrrolo[2,3-b]pyridine], the EC50 in assay [1] (setting [16]) amounted to 29.4 nM; in assay [3] (setting [17]), 229 nM. Moreover, the results for the Emax in assay [1] (setting [5]) and in assay [3] (setting [7]) were 82% and 43.8%, respectively. Besides, the affinity in assay [2] (setting [6]) corresponds to a Ki of 143 nM.
A word on the pKi: it is the negative decadic logarithm of the Ki, by convention in mol/L. In the case of `CN1CCC=C(c2c[nH]c3c(Cl)cc(F)cc23)C1` [Example 115, 7-chloro-5-fluoro-3-(1-methyl-1,2,5,6-tetrahydropyridin-3-yl)-1H-indole], the pEC50 in assay [1] (setting [4]) is 7.29. Besides, the Emax in assay [1] (setting [5]) came to 114%; in assay [3] (setting [7]), 59.7%. Also, in assay [2] (secondary radioligand binding, Ki from IC50 by Cheng-Prusoff, read-out: 5HT2A Ki), the pKi is 7.68. In addition, in assay [3] (setting [17]), the EC50 turned out to be 576 nM.
With `N#Cc1ccc2c(C3=CCCNC3)n[nH]c2c1` [Example 79, 3-(1,2,5,6-tetrahydropyridin-3-yl)-1H-indazole-6-carbonitrile], the EC50 in assay [1] (setting [16]) is 874 nM; in assay [3] (setting [17]), 1710 nM. For the same compound, the Emax in assay [1] (setting [5]) worked out at 48.6%; in assay [3] (setting [7]) it was 82.1%. For the same compound, affinity in assay [2] (setting [6]) was put at a Ki of 441 nM.
In the case of `Cc1c(F)ccc2c(C34CNCC3C4)c[nH]c12` (stereo not shown) [Example 283, 3-(3-azabicyclo[3.1.0]hexan-1-yl)-6-fluoro-7-methyl-1H-indole], the EC50 came to 88.2 nM in assay [1] (setting [13]) and 797 nM in assay [3] (setting [11]). The Emax in assay [1] (setting [14]) turned out to be 104%; in assay [3] (setting [15]) it was 41.5%. For the same compound, in assay [2] (setting [10]), the Ki worked out at 141 nM.
